Target: α-hemolysin (Staphylococcus aureus, UniProt P09616)
Assay type: biochemical

Sequence of α-hemolysin (P09616 27-319 limits assumed): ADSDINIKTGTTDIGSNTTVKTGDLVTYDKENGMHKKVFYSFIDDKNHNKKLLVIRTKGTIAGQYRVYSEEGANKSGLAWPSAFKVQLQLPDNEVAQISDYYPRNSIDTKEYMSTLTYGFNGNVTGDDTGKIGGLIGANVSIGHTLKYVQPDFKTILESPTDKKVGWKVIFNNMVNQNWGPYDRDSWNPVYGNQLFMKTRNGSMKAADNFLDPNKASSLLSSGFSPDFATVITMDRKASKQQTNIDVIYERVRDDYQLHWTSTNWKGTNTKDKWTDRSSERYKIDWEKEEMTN

For OC[C@H]1O[C@@H]2O[C@H]3[C@H](O)[C@@H](O)[C@@H](O[C@H]4[C@H](O)[C@@H](O)[C@@H](O[C@H]5[C@H](O)[C@@H](O)[C@@H](O[C@H]6[C@H](O)[C@@H](O)[C@@H](O[C@H]7[C@H](O)[C@@H](O)[C@@H](O[C@H]8[C@H](O)[C@@H](O)[C@@H](O[C@H]9[C@H](O)[C@@H](O)[C@@H](O[C@H]1[C@H](O)[C@H]2O)O[C@@H]9CO)O[C@@H]8CO)O[C@@H]7CO)O[C@@H]6CO)O[C@@H]5CO)O[C@@H]4CO)O[C@@H]3CO [cyclodextrin, γ-Cyclodextrin], the “magnitude and lifetime of the reversible blockades of the α-hemolysin pore” value was “consistent with previous reports” and the “reversible blockages of the α-hemolysin pores” value was “reversible blockages of the pores by cyclodextrin are observed”.

Reference: US12259384B2, “Membrane and droplet-interface bilayer systems and methods” (University of Massachusetts, priority 2015, dated 2025)
